“Also recorded” adds a separate entry of the source. Where two headings read alike, the source gives them in different places. Where a SMILES comes first, the peptide text is derived from it. Bridges are numbered along the chain shown (N, C = ends). Roman numbers before positions name the chains, in order.

Data set [1] is described as follows: Solubility of (Ala-Cys)2 and its solubilization by addition of cysteine, turbidity at 600 nm. In kind it is physicochemical. How it is done:
Turbid suspensions of 50 mM (Ala-Cys)2 in phosphate buffer at pH=7 were prepared and increasing amounts of cysteine were added. The mixtures were incubated at 37° C. in a microtiter plate (liquid volume per well was 200 μl) and turbidity at 600 nm was measured after 30 minutes. At concentrations of 20 mM of cysteine and higher, (Ala-Cys)2 was fully solubilized and no further reduction of turbidity was measured. Solutions were visually transparent (see FIG. 2).

For data set [2] the following is noted: pH range between 3 and 9; cited from earlier work.
The nature of data set [3]: Stabilization of 25 mM and 50 mM cysteine solutions against precipitation by Cys-dipeptides under oxidizing conditions (H2O2), turbidity at 600 nm. In kind it is physicochemical. The following applies: H2O2 added, after 4.5 hours. On the procedure: (§1) Turbidity caused by precipitation was measured photometrically at 600 nm in a microtiter plate-based assay. Liquid volume per well was 200 μl and measurements were conducted over 24 hours at 37° C. in a microplate reader (Tecan). The plates were not covered with a lid.
(§2) An experiment as described in example 1 was conducted in a microtiter plate. After two hours of incubation at 37° C., 14 μl of a 5 weight % H2O2 solution were added to each well to accelerate oxidation and evaluate stabilization under fully oxidized conditions. […] Turbidity measurements in the microplate reader were continued subsequently. Results are shown in Fehler! Verweisquelle konnte nicht gefunden werden.
To evaluate if the above described stabilization is also possible by addition of other Cys-dipeptides, experiments as described in example 4 were conducted with the exception that reduced cysteine concentrations of 50 mM and 25 mM were used and that the concentrations of added Cys-dipeptides were 0 (=control), 5, 10, 25 and 50 mM. The effect of (Asp-Cys)2, (Cys-Asp)2, (Lys-Cys)2, (Cys-Lys)2, (Ala-Cys)2 and (Pro-Cys)2 was evaluated. All Cys-peptides were able to prevent precipitation from the cysteine solutions after addition of H2O2 Differences in stabilization efficiency were observed between the various Cys-Peptides at cysteine concentrations of 50 mM. The Cys-dipeptides containing lysine residues were the most efficient stabilizers and a molar Cys-peptide to cysteine ratio between 1:2 and 1:5 provided sufficient stability.

Data set [4] in a line: Stabilization of 50 mM cysteine solution against precipitation by reduced and oxidized Cys-dipeptides under oxidizing conditions (H2O2), turbidity at 600 nm. The following applies: H2O2 added; for Turbidity at 600 nm: after 4.5 hours. In kind it is physicochemical. On the procedure: as §1, §2
To evaluate if the above described stabilization is also possible by addition of reduced Cys-dipeptides (=free thiol), the same experimental setup as described in example 4 was chosen. In this case, various concentrations of the reduced dipeptide Cys-Gly and of the oxidized dipeptide (Cys-Gly)2 were added to a 50 mM cysteine solution. Both Cys-peptides were able to prevent precipitation from the cysteine solutions after addition of H2O2.

A short description of data set [5]: Stabilization of a 100 mM cysteine solution against precipitation by (Lys-Cys)2 under oxidizing conditions (H2O2), turbidity. The format is physicochemical. How it is done: as §1, §2
The mixtures were incubated in a microplate for 2 hours at 37° C. and turbidity was measured photometrically. H2O2 was subsequently added to accelerate oxidation and evaluate stability against precipitation under fully oxidized conditions. Turbidity measurement was continued directly after H2O2 addition. With cysteine alone, the solution turned directly and visibly turbid, when H2O2 was added. With increasing amounts of added (Lys-Cys)2, the amount of precipitate measured via turbidity was reduced.

Data set [6] is described as follows: Precipitation from a 100 mM cysteine solution with added (Lys-Cys)2, turbidity at 600 nm in microtiter plate. In kind it is physicochemical. The conditions noted are these: 24 hours. How it is done: Solutions of substances and dilutions thereof were prepared in 100 mM phosphate buffer, pH=7 in all experiments in all examples. Precipitation could be avoided in a 100 mM solution of cysteine in a 100 mM phosphate buffer at pH=7 by the addition of suitable concentrations of (Lys-Cys)2.
as §1
When 100 mM solutions of cysteine were prepared with 0, 100, 200 or 400 mM (Lys-Cys)2×2 HCl at pH=7, a surprising result was obtained. Precipitation could be seen and measured in the absence of added peptide. […] The precipitates could be observed visually and measured via turbidimetry (see FIG. 1).

The mark [7] stands for this setting: 25 mM cysteine solution, Cys-peptide 5 mM.
Where [8] appears, read: 25 mM cysteine solution, Cys-peptide 10 mM.
Where [9] appears, read: 25 mM cysteine solution, Cys-peptide 25 mM.
Where [10] appears, read: 25 mM cysteine solution, Cys-peptide 50 mM.
The mark [11] stands for this setting: 50 mM cysteine solution, Cys-peptide 5 mM.
Setting [12] is: 50 mM cysteine solution, Cys-peptide 10 mM.
Setting [13] is: 50 mM cysteine solution, Cys-peptide 25 mM.
Where [14] appears, read: 50 mM cysteine solution, Cys-peptide 50 mM.

Take `C[C@H](N)C(=O)N[C@@H](CSSC[C@H](NC(=O)[C@H](C)N)C(=O)O)C(=O)O` [(Ala-Cys)2] (I: H-Ala-Cys-OH / II: H-Ala-Cys-OH; disulfide I:2-II:2; N-terminus and C-terminus assumed): the solubility was at least 20 mM in data set [1] (50 mM (Ala-Cys)2 suspension, phosphate buffer pH=7, 37° C., turbidity at 600 nm after 30 minutes, read-out: concentration of cysteine at which 50 mM (Ala-Cys)2 was fully solubilized); below 50 mM in data set [1] (pH=7 and 37° C., read-out: maximum solubility).
With `N[C@@H](CSSC[C@H](N)C(=O)O)C(=O)O` [cystine], the solubility in data set [2] is below 1 mM.
As for (Asp-Cys)2, the “Turbidity at 600 nm” value in data set [3] (setting [7]) is listed as 0.038 AU; in data set [3] (setting [8]), 0.039 AU; in data set [3] (setting [9]), 0.038 AU; in data set [3] (setting [10]) it was 0.040 AU; in data set [3] (setting [11]) it was 1.453 AU; in data set [3] (setting [12]) it was 1.301 AU. The figures for the “Turbidity at 600 nm” value in data set [3] (setting [13]) and in data set [3] (setting [14]) were 0.039 AU and 0.042 AU, respectively.
For (Cys-Asp)2, the “Turbidity at 600 nm” value in data set [3] (setting [7]) was found to be 0.081 AU; in data set [3] (setting [8]) it was 0.037 AU; in data set [3] (setting [9]), 0.038 AU; in data set [3] (setting [10]) it was 0.040 AU; in data set [3] (setting [11]), 1.702 AU; in data set [3] (setting [12]) it was 1.523 AU. For the same compound, the “Turbidity at 600 nm” value in data set [3] (setting [13]) is 0.279 AU; in data set [3] (setting [14]), 0.039 AU.
Take (Cys-Gly)2: the “Turbidity at 600 nm” value turned out to be 1.07 AU in data set [4] (Cys-peptide 5 mM), 0.07 AU in data set [4] (Cys-peptide 10 mM), 0.04 AU in data set [4] (Cys-peptide 25 mM) and 0.04 AU in data set [4] (Cys-peptide 50 mM). For the same compound, the “peptide concentration at which precipitation was completely suppressed” value in data set [4] came to 25 mM.
As for (Cys-Lys)2, the “Turbidity at 600 nm” value in data set [3] (setting [7]) was 0.044 AU; in data set [3] (setting [8]), 0.050 AU; in data set [3] (setting [9]), 0.068 AU; in data set [3] (setting [10]) it was 0.084 AU; in data set [3] (setting [11]), 0.390 AU; in data set [3] (setting [12]), 0.092 AU. Also, the “Turbidity at 600 nm” value in data set [3] (setting [13]) amounted to 0.067 AU; in data set [3] (setting [14]), 0.077 AU.
Take (Lys-Cys)2: in data set [5] (100 mM cysteine with 400 mM (Lys-Cys)2), the “precipitate after H2O2 addition” value is on record as “no precipitate was observed; also recorded: remained completely clear”. Moreover, the “turbidity directly after addition of H2O2” value in data set [5] (100 mM cysteine with (Lys-Cys)2, 2 hours at 37° C., then H2O2) is “no immediate increase in turbidity was observed”. For the same compound, the “turbidity increase after H2O2 addition” value in data set [5] (100 mM cysteine, increasing concentrations of (Lys-Cys)2) is “strongly reduced”. Besides, the “Turbidity at 600 nm” value in data set [3] (setting [7]) came out at 0.039 AU; in data set [3] (setting [8]), 0.041 AU; in data set [3] (setting [9]), 0.042 AU; in data set [3] (setting [10]), 0.047 AU; in data set [3] (setting [11]) it was 0.946 AU; in data set [3] (setting [12]), 0.556 AU. For the same compound, the entries for the “Turbidity at 600 nm” value in data set [3] (setting [13]) and in data set [3] (setting [14]) were 0.045 AU and 0.047 AU, respectively. Also, the “precipitation (visual, turbidimetry)” value is “accelerated precipitation” in data set [6] (100 mM cysteine with 100 mM (Lys-Cys)2, pH=7, 37° C.); “effectively prevented precipitation” in data set [6] (100 mM cysteine with 200 mM (Lys-Cys)2, pH=7, 37° C.); “effectively prevented precipitation” in data set [6] (100 mM cysteine with 400 mM (Lys-Cys)2, pH=7, 37° C.).
For the compound (Pro-Cys)2, the “Turbidity at 600 nm” value in data set [3] (setting [7]) is on record as 0.078 AU; in data set [3] (setting [8]), 0.039 AU; in data set [3] (setting [9]), 0.040 AU; in data set [3] (setting [10]), 0.042 AU; in data set [3] (setting [11]) it was 1.539 AU; in data set [3] (setting [12]) it was 1.379 AU. The “Turbidity at 600 nm” value in data set [3] (setting [13]) was found to be 0.762 AU; in data set [3] (setting [14]), 0.118 AU.
On to Cys-Gly, for which the “Turbidity at 600 nm” value in data set [4] (Cys-peptide 5 mM) turned out to be 0.58 AU; in data set [4] (Cys-peptide 10 mM), 0.37 AU; in data set [4] (Cys-peptide 25 mM), 0.26 AU; in data set [4] (Cys-peptide 50 mM) it was 0.04 AU. Also, in data set [4], the “peptide concentration at which precipitation was completely suppressed” value amounted to 50 mM.
